What was measured:
[1] = DVS moisture sorption isotherm; format: physicochemical; settings: 25° C., 0-90% RH, 10% RH intervals
Description: Sorption isotherms are obtained using a TA Instruments Q5000 SA DVS. The sample temperature is maintained at 25° C. by the instrument controls. The humidity is controlled by mixing streams of dry and wet nitrogen, with a total flow rate of 200 ml/min. The relative humidity is measured by a calibrated probe (dynamic range of […]), located near the sample. The weight change, (mass relaxation) of the sample as a function of % RH is constantly monitored by a microbalance (accuracy 0.0001 mg). Typically, 3-10 mg of sample is placed in a tared mesh stainless steel basket under ambient conditions. The sample is loaded and unloaded at 50% RH and 25° C. (typical room conditions). A moisture sorption isotherm is performed as outlined below (2 scans per complete cycle). The standard isotherm is performed at 25° C. at 10% RH intervals over a 0-90% RH range. Typically, a triple cycle is carried out. Data analysis is carried out using TA Instruments Universal Analysis 2000. [table]

[2] = comparison statement for selinexor itself; no medium given; cited from earlier work

DVS water adsorption [1]: does not adsorb water
Structure (SMILES): O=C(/C=C\n1cnc(-c2cc(C(F)(F)F)cc(C(F)(F)F)c2)n1)NNc1cnccn1 [selinexor, (Z)-3-(3-(3,5-bis(trifluoromethyl)phenyl)-IH-I,2,4-triazol-1-yl)-N′-(pyrazin-2yl)acrylohydrazide]
solubility [2]: low solubility
